For orientation: EC50 means the concentration that produces a half-maximal response. A word on the IC50: it is the concentration that gives 50% inhibition.

For 7 compounds, EC50 and IC50 results are on record in US8394829B2, “Bi-functional quinoline analogs” (Gilead Sciences, Inc., priority 2010, dated 2013).

The test system of test [1] is LPS-induced TNF-α release from human peripheral blood mononuclear cells (PBMC). Put plainly: Inhibition of LPS-induced TNF-α release from human PBMC. Type of test: cell-based. The conditions noted are these: LPS 0.4 ng/mL, 6 h, presence or absence of ICI-118551 not given. The text has this:
Inhibition of Lipopolysaccharide (LPS)-Induced Tumour Necrosis Factor Alpha (TNF-α) Release from Human Peripheral Blood Mononuclear Cells (PBMC)
Human whole blood was drawn from donors and cell purification initiated within two hours. Peripheral blood mononuclear cells (PBMC) were purified using a standard Ficoll gradient purification technique and aliquoted at a concentration of 100,000 cells/well in 96 well plates. Beta-2 adrenoreceptor agonists are also anti-inflammatory for some immune cells expressing the receptor and in this assay they can inhibit tumor necrosis factor-alpha (TNF-α) production. Therefore PBMC were pre-incubated for 30 min in the presence of the beta-2 adrenoreceptor antagonist ICI-118551 [3-(isopropylamino)-1-[(7-methyl-4-indanyl)oxy]butan-2-ol] (10 μM) to determine the PDE4 directed activity of test compounds, and in the absence of ICI-118551 for the combined PDE4 and beta-2 receptor directed activity. Test compounds were dissolved in DMSO and diluted in buffer (final DMSO concentration of 0.1% v/v) and were then added to the cell suspensions and pre-incubated for a further 1 h at 37° C. LPS solution was then added (0.4 ng/mL) and the cells incubated for a further 6 h. At the end of the incubation period the cell supernatants were collected and TNF-α was measured using a Procarta Cytokine Assay Kit (Affymetrix, Santa Clara, Calif.) according to the manufacturers' instructions. Data were analyzed using MiraiBio Masterplex QT v4.0 software (MasterPlex Version 1.0.1.18 Copyright 2008, Hitachi Software Engineering Co., Ltd) and used to extrapolate Mean Fluorescence Intensity (MFI) into concentrations of TNF-α and mean values from replicate wells were determined. Inhibition curves were plotted using a nonlinear curve fit employing a single-site binding model to determine the IC50 value for each test compound in the presence or absence of ICI-118551 using GraphPad Prism 5 for Windows, version 5.02 (GraphPad Software, San Diego Calif.).
EC50 determinations for the compounds presented above are seen in the fourth column of Table 1 (PBMC TNF EC50).

The target in test [2] is T1, human recombinant beta-2 adrenoreceptors (Homo sapiens, UniProt P07550).
T1 construct: expressed in transfected cells; host or cells: CHO cells
T1 sequence (P07550 whole entry): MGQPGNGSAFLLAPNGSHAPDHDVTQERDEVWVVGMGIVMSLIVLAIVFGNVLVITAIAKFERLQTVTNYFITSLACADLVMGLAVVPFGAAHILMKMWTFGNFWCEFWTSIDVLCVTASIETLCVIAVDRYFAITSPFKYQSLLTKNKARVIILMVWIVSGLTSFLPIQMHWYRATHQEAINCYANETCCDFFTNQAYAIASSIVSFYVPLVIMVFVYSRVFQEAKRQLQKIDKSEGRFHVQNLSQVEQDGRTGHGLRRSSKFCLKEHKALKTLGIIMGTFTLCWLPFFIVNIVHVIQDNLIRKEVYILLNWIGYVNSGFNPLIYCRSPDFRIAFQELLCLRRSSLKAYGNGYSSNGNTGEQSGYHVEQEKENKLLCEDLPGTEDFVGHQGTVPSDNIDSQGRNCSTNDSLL
The test can be described thus: Beta-2 adrenoceptor binding assay ([3H](−)CGP-12177 displacement). The conditions noted are these: CHO cells expressing human beta-2 adrenoreceptors, [3H](−)CGP-12177 0.3 nM, 120 min. On the procedure:
Beta-2 Adrenoceptor Binding Assay
Test compounds were incubated for 120 min with Chinese hamster oocyte (CHO) cells expressing the human recombinant beta-2 adrenoreceptors. Binding of test compounds to the beta-2 adrenoreceptors was determined by measuring the displacement of the radiolabeled ligand [^3H](−)CGP-12177 (0.3 nM) from the receptor measured by a scintillation counting. Concentration response curves were generated for test compounds and the IC50 (molar concentration of the compound which produced 50% inhibition for the maximal response for that compound) was determined. These assays were performed using a protocol based on the original description of the assay by Joseph et al., (2004) Naun.-Sch. Arch. Pharm.; 369:525-532.
IC50 determinations for the compounds presented above are seen in the second column of Table 1 (Beta 2 IC50).

In test [3] the target is T1, human recombinant beta-2 adrenoreceptors. Put plainly: Functional agonism of human recombinant beta-2 adrenoreceptors expressed in CHO cells (cAMP HTRF). It is filed as cell-based. The conditions noted are these: CHO cells expressing human beta-2 adrenoreceptors, cAMP elevation, 30 min. How it is done:
Functional Agonism of Human Recombinant Beta-2 Adrenoreceptors Expressed in Chinese Hamster Oocytes (CHO)
Test compounds were incubated for 30 min with CHO cells expressing the human recombinant beta-2 adrenoreceptors. Agonism of the receptor was measured by the elevation of intracellular cyclic-AMP over control levels detected using a homogeneous time resolved fluorescence (HTRF) format. Compounds were determined to be “full” or “partial” agonists based on the maximum level of cAMP accumulated compared to the control compound isoproterenol which is a full agonist in this assay system. Concentration response curves were generated for test compounds and the EC50 (molar concentration of the agonist which produced 50% of the maximal response for that compound) was determined. These assays were performed using a protocol based on the original description of the assay by Baker, J. G. (2005) Brit. J. Pharmacol.; 144:317-322.
EC50 determinations for the compounds presented above are seen in the third column of Table 1 (Beta 2 EC50).
For orientation: TR-FRET usually uses a lanthanide donor and a delayed reading to cut background.

`COc1cccc(Nc2c(C(N)=O)cnc3c(C)cc(S(=O)(=O)c4cccc(C(=O)Nc5ccc(-c6ccc(CCCCNC[C@H](O)c7ccc(O)c8c7OCC(=O)N8)cc6)cc5)c4)cc23)c1` [Example 21, (R)-6-((3-((4′-(4-((2-hydroxy-2-(5-hydroxy-3-oxo-3,4-dihydro-2H-benzo[b][1,4]oxazin-8-yl)ethyl)amino)butyl)-(1,1′-biphenyl]-4-yl)carbamoyl)phenyl)sulfonyl)-4-((3-methoxyphenyl)amino)-8-methylquinoline-3-carboxamide] displayed an EC50 in test [1] of less than 100 nM. In addition, in test [2], the IC50 was less than 100 nM.
Take `COc1cccc(Nc2c(C(N)=O)cnc3c(C)cc(S(=O)(=O)c4cccc(C(=O)Nc5cccc(-c6ccc(CCCCNC[C@H](O)c7ccc(O)c8c7OCC(=O)N8)cc6)c5)c4)cc23)c1` [Example 22]: the EC50 in test [1] and in test [3] was less than 100 nM throughout. Also, the IC50 in test [2] was less than 100 nM.
Consider `COc1cccc(Nc2c(C(N)=O)cnc3c(C)cc(S(=O)(=O)c4cccc(C(=O)Nc5ccc(C#CCCCNC[C@H](O)c6cc(O)cc7c6OCC(=O)N7)cc5)c4)cc23)c1` [Example 24, (R)-6-((3-((4-(5-((2-hydroxy-2-(6-hydroxy-3-oxo-3,4-dihydro-2H-benzo[b][1,4]oxazin-8-yl)ethyl)amino)pent-1-yn-1-yl)phenyl)carbamoyl)phenyl)sulfonyl)-4-((3-methoxyphenyl)amino)-8-methylquinoline-3-carboxamide], for which the values for the EC50 in test [1] and in test [3] were less than 100 nM and less than 300 nM, respectively. The IC50 in test [2] is less than 100 nM.
On to `COc1cccc(Nc2c(C(N)=O)cnc3c(C)cc(S(=O)(=O)c4cccc(C(=O)Nc5ccc(C#CCCCNC[C@H](O)c6ccc(O)c7c6OCC(=O)N7)c(C)c5)c4)cc23)c1` [Example 36, (R)-6-((3-((4-(5-((2-hydroxy-2-(5-hydroxy-3-oxo-3,4-dihydro-2H-benzo[b][1,4]oxazin-8-yl)ethyl)amino)pent-1-yn-1-yl)-3-methylphenyl)carbamoyl)phenyl)sulfonyl)-4-((3-methoxyphenyl)amino)-8-methylquinoline-3-carboxamide], for which the EC50 in test [1] was less than 100 nM. The 50% inhibitory concentration (IC50) in test [2] is less than 100 nM.
As for `COc1cccc(Nc2c(C(N)=O)cnc3c(C)cc(S(=O)(=O)c4cccc(C(=O)N(C)c5ccc(CCCCOCCCCCCNC[C@H](O)c6ccc(O)c7[nH]c(=O)ccc67)cc5)c4)cc23)c1` [Example 40, (R)-6-((3-((4-(4-((6-((2-hydroxy-2-(8-hydroxy-2-oxo-1,2-dihydroquinolin-5-yl)ethyl)amino)hexyl)oxy)butyl)phenyl)(methyl)carbamoyl)phenyl)sulfonyl)-4-((3-methoxyphenyl)amino)-8-methylquinoline-3-carboxamide], the EC50 in test [3] was less than 100 nM. Moreover, the IC50 in test [2] is less than 100 nM.
`COc1cccc(Nc2c(C(N)=O)cnc3c(C)cc(S(=O)(=O)c4ccc(-c5ccc(CCCNC[C@H](O)c6ccc(O)c7c6OCC(=O)N7)cc5)cc4)cc23)c1` [Example 49, (R)-6-((4′-(3-((2-hydroxy-2-(5-hydroxy-3-oxo-3,4-dihydro-2H-benzo[b][1,4]oxazin-8-yl)ethyl)amino)propyl)-[1,1′-biphenyl]-4-yl)sulfonyl)-4-((3-methoxyphenyl)amino)-8-methylquinoline-3-carboxamide]: in test [1], the EC50 was less than 100 nM. The IC50 in test [2] is less than 100 nM.
For `COc1cccc(Nc2c(C(N)=O)cnc3c(C)cc(S(=O)(=O)c4cccc(-c5ccc(CCCNC[C@H](O)c6ccc(O)c7c6OCC(=O)N7)cc5)c4)cc23)c1` [Example 50, (R)-6-((4′-(3-((2-hydroxy-2-(5-hydroxy-3-oxo-3,4-dihydro-2H-benzo[b][1,4]oxazin-8-yl)ethyl)amino)propyl)-[1,1′-biphenyl]-3-yl)sulfonyl)-4-((3-methoxyphenyl)amino)-8-methylquinoline-3-carboxamide], in test [1], the EC50 was less than 100 nM. Also, the half-inhibitory concentration (IC50) in test [2] was less than 100 nM.
